In ChEMBL document CHEMBL1201862, “PubChem BioAssay data set” (2004):
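A five-concentration, 48-hour dose response in 96-well plates underlies each endpoint, interpolated linearly between surrounding concentrations. At the GI50, growth is halved.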 The source made the active and inactive calls. Rule as the data show it: active = GI50 up to about 1.1 µM and inactive = higher.

How the values were obtained:
Assay in all cases: NCI anticancer screen, dose series, 48 h
786-0 = tested on: 786-0
ACHN = tested on: ACHN
CCRF-CEM = tested on: CCRF-CEM
HOP-62 = tested on: HOP-62
IGROV-1 = tested on: IGROV-1
K562 = tested on: K562
MDA-N = tested on: MDA-N
NCI-H23 = tested on: NCI-H23
OVCAR-5 = tested on: OVCAR-5
OVCAR-8 = tested on: OVCAR-8
SF-268 = tested on: SF-268
SF-295 = tested on: SF-295
SK-MEL-5 = tested on: SK-MEL-5
SN12C = tested on: SN12C
TK-10 = tested on: TK-10
UACC-257 = tested on: UACC-257
UO-31 = tested on: UO-31
EKVX = tested on: EKVX
RXF 393 = tested on: RXF 393
RPMI-8226 = tested on: RPMI-8226

Measured: GI50

O=C(O)c1cc(-c2ccc3cc(O)c(O)cc3c2)ccc1O
inactive: 786-0 > 12.5 µM | ACHN > 12.5 µM | CCRF-CEM > 12.5 µM | HOP-62 > 12.5 µM | IGROV-1 > 12.5 µM | K562 > 12.5 µM | MDA-N 3.88 µM | NCI-H23 > 12.5 µM | OVCAR-5 > 12.5 µM | OVCAR-8 > 12.5 µM | SF-268 > 12.5 µM | SF-295 > 12.5 µM | SK-MEL-5 > 12.5 µM | SN12C > 12.5 µM | TK-10 > 12.5 µM | UACC-257 > 12.5 µM | UO-31 > 12.5 µM

O=C(CCc1ccc(O)cc1)NCCc1ccc(O)cc1
inactive: 786-0 > 100 µM | ACHN 62.4 µM | CCRF-CEM > 100 µM | EKVX > 100 µM | HOP-62 > 100 µM | IGROV-1 > 100 µM | K562 > 100 µM | MDA-N > 100 µM | NCI-H23 > 100 µM | OVCAR-5 > 100 µM | OVCAR-8 > 100 µM | RXF 393 > 100 µM | SF-268 > 100 µM | SF-295 > 100 µM | SK-MEL-5 > 100 µM | SN12C > 100 µM | TK-10 > 100 µM | UACC-257 > 100 µM | UO-31 > 100 µM

Oc1ccc(C(c2ccc(O)cc2)c2ccc(O)cc2)cc1
inactive: 786-0 17.6 µM | ACHN 27.3 µM | CCRF-CEM 33.6 µM | EKVX 15.3 µM | IGROV-1 14.3 µM | MDA-N 25.9 µM | NCI-H23 19.2 µM | OVCAR-8 15.6 µM | RPMI-8226 27.2 µM | RXF 393 17.2 µM | SF-268 32.1 µM | SF-295 41.4 µM | SK-MEL-5 13.8 µM | SN12C 20.3 µM | TK-10 22.8 µM | UACC-257 20.4 µM | UO-31 18.4 µM

COC1CC2C=CC3C4OC2(/C(C)=C/C(C)C(C(C)O)OC1=O)C3C(O)C(C)C4OC(=O)c1ccc[nH]1 (stereo unspecified)
inactive: 786-0 94.8 µM | ACHN > 100 µM | CCRF-CEM 25.9 µM | EKVX 63.4 µM | HOP-62 > 100 µM | IGROV-1 > 100 µM | MDA-N 45.5 µM | NCI-H23 > 100 µM | OVCAR-5 > 100 µM | OVCAR-8 48.9 µM | RPMI-8226 35.6 µM | SF-268 > 100 µM | SF-295 30.9 µM | SK-MEL-5 38.2 µM | SN12C > 100 µM | TK-10 > 100 µM | UACC-257 57.8 µM | UO-31 > 100 µM

C=CC(=O)Nc1ccc(NC(=O)C=C)c2c1C(=O)c1ccccc1C2=O
inactive: 786-0 21.5 µM | ACHN 61.7 µM | EKVX > 100 µM | HOP-62 > 100 µM | IGROV-1 > 100 µM | K562 15.7 µM | MDA-N 36.1 µM | NCI-H23 48.6 µM | OVCAR-5 > 100 µM | OVCAR-8 27.7 µM | RPMI-8226 3.03 µM | SF-295 10.8 µM | SK-MEL-5 60.1 µM | SN12C 35.8 µM | TK-10 23.2 µM | UACC-257 > 100 µM | UO-31 46.1 µM

CCCCCCCCCCCCP(=O)(O)OCC(N)C(=O)O (stereo unspecified)
inactive: 786-0 27.5 µM | ACHN 40.3 µM | EKVX 93.3 µM | HOP-62 16.1 µM | IGROV-1 30.1 µM | K562 39.4 µM | MDA-N 21.4 µM | NCI-H23 48.9 µM | OVCAR-5 34.1 µM | OVCAR-8 35.5 µM | RPMI-8226 30.9 µM | RXF 393 48.1 µM | SF-268 23.9 µM | SF-295 17.4 µM | SK-MEL-5 32.5 µM | SN12C 18.9 µM | TK-10 33.3 µM | UACC-257 > 100 µM | UO-31 12.3 µM

COC(=O)/C(=N\NC(=S)NN)C(C(=O)OC)C(=O)C(=O)Nc1cccc(C(F)(F)F)c1 (stereo unspecified)
inactive: 786-0 > 100 µM | ACHN > 100 µM | CCRF-CEM > 100 µM | EKVX > 100 µM | HOP-62 > 100 µM | IGROV-1 > 100 µM | MDA-N > 100 µM | NCI-H23 > 100 µM | OVCAR-5 79.1 µM | OVCAR-8 > 100 µM | RPMI-8226 > 100 µM | RXF 393 > 100 µM | SF-268 > 100 µM | SF-295 > 100 µM | SK-MEL-5 > 100 µM | SN12C > 100 µM | TK-10 > 100 µM | UACC-257 > 100 µM | UO-31 > 100 µM

COc1ccc2[nH]c3c(c2c1)COc1ccccc1C3=O
inactive: 786-0 > 100 µM | ACHN > 100 µM | CCRF-CEM > 100 µM | EKVX > 100 µM | HOP-62 > 100 µM | IGROV-1 > 100 µM | K562 > 100 µM | MDA-N > 100 µM | NCI-H23 > 100 µM | OVCAR-5 > 100 µM | OVCAR-8 > 100 µM | RPMI-8226 > 100 µM | SF-268 > 100 µM | SF-295 > 100 µM | SK-MEL-5 > 100 µM | SN12C > 100 µM | TK-10 > 100 µM | UACC-257 > 100 µM | UO-31 > 100 µM

COC(=O)[C@@H]1[C@H](O)CC[C@H]2[C@@]1(C)CC[C@@H](C)[C@]2(COC(C)=O)CC(=O)c1ccoc1
inactive: 786-0 > 50 µM | ACHN > 50 µM | CCRF-CEM 16.7 µM | EKVX > 50 µM | IGROV-1 > 50 µM | MDA-N > 50 µM | NCI-H23 > 50 µM | OVCAR-5 > 50 µM | OVCAR-8 > 50 µM | RPMI-8226 26.1 µM | RXF 393 > 50 µM | SF-268 > 50 µM | SF-295 > 50 µM | SK-MEL-5 > 50 µM | SN12C > 50 µM | TK-10 > 50 µM | UACC-257 > 50 µM | UO-31 > 50 µM

CC(C)=C[C@H]1CCC2(OCCO2)[C@]1(C)COCc1ccccc1
inactive: 786-0 31 µM | ACHN 34.4 µM | CCRF-CEM 16.1 µM | EKVX 33 µM | MDA-N 33.7 µM | NCI-H23 25.8 µM | OVCAR-5 18.4 µM | OVCAR-8 38.6 µM | RPMI-8226 18.2 µM | RXF 393 5.98 µM | SF-268 48.9 µM | SF-295 40 µM | SK-MEL-5 16.3 µM | SN12C 24.5 µM | TK-10 40.7 µM | UACC-257 16.4 µM | UO-31 43.6 µM

CN(CCSCCN(C)C(=O)OC(C)(C)C)C(=O)OC(C)(C)C
inactive: 786-0 > 100 µM | ACHN > 100 µM | CCRF-CEM > 100 µM | EKVX > 100 µM | HOP-62 > 100 µM | IGROV-1 > 100 µM | K562 > 100 µM | MDA-N > 100 µM | NCI-H23 > 100 µM | OVCAR-5 > 100 µM | OVCAR-8 > 100 µM | SF-268 > 100 µM | SF-295 > 100 µM | SK-MEL-5 > 100 µM | SN12C > 100 µM | TK-10 > 100 µM | UACC-257 > 100 µM | UO-31 > 100 µM

CC(C)(C)[Si](C)(C)OC1/C(=C/C#N)C(n2ccc(=O)[nH]c2=O)OC1CO (stereo unspecified)
inactive: 786-0 > 100 µM | ACHN > 100 µM | HOP-62 > 100 µM | K562 96.2 µM | MDA-N > 100 µM | NCI-H23 > 100 µM | OVCAR-5 > 100 µM | OVCAR-8 > 100 µM | RXF 393 > 100 µM | SF-268 > 100 µM | SF-295 > 100 µM | SK-MEL-5 > 100 µM | TK-10 > 100 µM | UO-31 > 100 µM

O=[N+]([O-])c1ccc2c(c1)nc(Cc1ccccc1)n2C[C@@H]1CCCN2CCCCC12 (stereo partly specified)
inactive: 786-0 22.3 µM | ACHN 57.8 µM | CCRF-CEM 17.6 µM | EKVX 17.1 µM | HOP-62 > 100 µM | IGROV-1 25.8 µM | K562 18.7 µM | MDA-N 20.6 µM | NCI-H23 27.5 µM | OVCAR-5 28.5 µM | OVCAR-8 34.9 µM | RXF 393 19.4 µM | SF-268 45.8 µM | SF-295 18 µM | SK-MEL-5 16.5 µM | SN12C 48 µM | TK-10 37.5 µM | UACC-257 15.8 µM | UO-31 6.49 µM

CCOC(=O)CCCn1nnc(C(=O)OCC)c1C(=O)OCC
inactive: 786-0 > 100 µM | ACHN > 100 µM | CCRF-CEM > 100 µM | EKVX > 100 µM | HOP-62 > 100 µM | IGROV-1 > 100 µM | MDA-N > 100 µM | NCI-H23 > 100 µM | OVCAR-8 > 100 µM | RXF 393 > 100 µM | SF-268 > 100 µM | SF-295 > 100 µM | SK-MEL-5 > 100 µM | SN12C > 100 µM | TK-10 > 100 µM | UACC-257 > 100 µM | UO-31 > 100 µM

Cc1cccc2oc3c(CC(=O)O)cccc3c(=O)c12
inactive: 786-0 > 100 µM | ACHN > 100 µM | CCRF-CEM > 100 µM | EKVX > 100 µM | HOP-62 > 100 µM | IGROV-1 > 100 µM | K562 > 100 µM | MDA-N > 100 µM | NCI-H23 > 100 µM | OVCAR-8 > 100 µM | RPMI-8226 > 100 µM | SF-268 > 100 µM | SF-295 > 100 µM | SK-MEL-5 > 100 µM | SN12C > 100 µM | TK-10 > 100 µM | UACC-257 > 100 µM | UO-31 > 100 µM
